In US9227968B2, “Method of treatment or prophylaxis of inflammatory pain” (Novartis AG, priority 2006, dated 2016):
“Also recorded” adds a separate entry of the source.

Columns and labels:
[1] = system: ipsilateral (inflamed) hindpaw of the FCA-rat model of inflammatory pain; experiment: Paw Pressure Test, FCA-rat model of inflammatory pain (Example 1), ipsilateral hindpaw; format: in vivo; settings: single i.p. bolus doses ~7-70 mg/kg (estimated doses)
Method: Single bolus doses of PD-123,319 were administered by the i.p. route to rats with FCA-induced unilateral hindpaw inflammation, a rat model of inflammatory pain. Anti-hyperalgesic (pain-relieving) efficacy was assessed using the Paw Pressure Test, a test which involves the application of noxious pressure to the inflamed hindpaw.
Following i.pl. […] The ability of single bolus doses of PD-123,319 (˜7-70 mg/kg) or vehicle to alleviate mechanical hyperalgesia in the ipsilateral (inflamed) hindpaw was assessed using the Paw Pressure Test (PPT).

[2] = system: monoarthritic rats; experiment: Paw pressure test (vocalization threshold) in monoarthritic rats (intraarticular FCA); format: in vivo, rat; settings: for antihyperalgesic effect in model of monoarthritis (overall): i.p. 0.1, 1 and 10 mg/kg
Method: Experimentation was done blindly using the block method with randomization. Unilateral monoarthritits was induced by an intraarticular injection of FCA (0.05 ml) into the tibio tarsial cavity of the right hindpaw of the rat under volatile anaesthetic (5% isofluorane). Fourteen days later, drugs were intraperitoneally given as a single administration. Pain reaction thresholds (vocalization or struggle) were measured using the paw pressure test before induction of monoarthritis, just before drug injections and 15 min, 30 min, 45 min, 1 h, 1 h 30, 2 h and 3 h after drug injections. Pressure was gradually applied to the injected hindpaw of the rat (tibio tarsial articulation) and pain reaction thresholds were determined as the pressure (g) required to elicit struggle or vocalization.
Results were expressed as pressure (g) which induces pain reaction (mean+/−SEM). The cut-off value corresponds to the maximum pressure that the apparatus allows (750 g). Data were analyzed by a two-way analysis of variance (ANOVA) to compare time-course scores. These analyses were followed by a Tukey test when the F-value was significant. The significance level was p<0.05.

[3] = Solubility of test articles in the dosing vehicle (Example 3); settings: at 10 mg/kg (2 mL/kg, NaCl 0.9%/DMSO 50/50)
[4] = system: ipsilateral hindpaw volume of FCA-rats; experiment: Paw volume measurement in FCA-rats (water displacement); format: in vivo, rat; settings: 3 h post-dosing, single bolus doses tested
Method: Paw volume was assessed using displacement of water by the hindpaw to indicate the paw volume. These measurements were undertaken for both the ipsilateral and contralateral hindpaws prior to and 5 days after i.pl. FCA administration and prior to and 3 h post-dosing.

[5] = system: FCA-rats; experiment: Behavioural observations in FCA-rats; format: in vivo, rat; settings: single bolus: EMA500 1-100 mg/kg i.p., EMA600 1-30 mg/kg i.p., morphine 0.5 mg/kg
Source text: The animals were monitored for visible and audible signs of distress throughout the testing period. The visible signs of distress included behavioural changes such as complete immobility, movement with abnormal gait, agitation, aggression, wet dog shakes, excessive grooming, restlessness with constant movement, repeated sudden movements or staring.

[6] = system: ipsilateral (inflamed) hindpaw of FCA-rats; experiment: Paw Pressure Test (PPT) in FCA-rats (Example 2), anti-hyperalgesia in ipsilateral hindpaw
[7] = system: contralateral (non-inflamed) hindpaw of FCA-rats; experiment: Paw Pressure Test (PPT) in FCA-rats (Example 2), antinociception in contralateral hindpaw; settings: 0.5 mg/kg s.c.; did not reach statistical significance (p>0.05)

## Cc1cc(Cn2cnc3c2CC(C(=O)O)N(C(=O)C(c2ccccc2)c2ccccc2)C3)ccc1N(C)C (stereo not drawn) [PD-123,319, 1-(4-Dimethylamino-3-methylphenyl)methyl-5-diphenylacetyl-4,5,6,7-tetrahydro-1H-imidazo[4,5-c]-pyridine-6-carboxylic acid]
[1]
  relief of mechanical hyperalgesia in the ipsilateral (inflamed) hindpaw: dose-dependent relief of mechanical hyperalgesia

## COc1ccc(Cn2cnc3c2CC(C(=O)O)N(C(=O)C(c2ccccc2)c2ccccc2)C3)cc1C (stereo not drawn) [EMA300, 1-(3-methyl-4-methoxyphenyl)-methyl-5-diphenylacetyl-4,5,6,7-tetrahydro-1H-imidazo[4,5-c]pyridine-6-carboxylic acid]
[2]; 0.1 mg/kg i.p., 15 and 30 minutes after drug injection
  antihyperalgesic effect: +6%
[2]; 1 mg/kg i.p., 15 and 30 minutes after drug injection
  antihyperalgesic effect: +22%
[2]; 10 mg/kg i.p., 15 and 30 minutes after drug injection
  antihyperalgesic effect: +56%
[2]
  antihyperalgesic effect in model of monoarthritis (overall): dose-dependent antihyperalgesic effect; also recorded: induce antihyperalgesic effects

## COc1ccc2c(c1OCc1ccccc1)CC(C(=O)O)N(C(=O)C(c1ccccc1)c1ccccc1)C2 (single isomer, unassigned; (+)) [EMA400, (+)-2-(Diphenylacetyl)-1,2,3,4 tetrahydro-6-methoxy-5-(phenylmethoxy)-3-isoquinoline carboxylic acid]
[2]; 1 mg/kg i.p., 15 minutes after the injection
  antihyperalgesic effect: +20%
[2]; 10 mg/kg i.p., 15 minutes after the injection
  antihyperalgesic effect: +40%
[2]; 10 mg/kg i.p., 30 minutes after the injection
  antihyperalgesic effect: significant antihyperalgesic effect
[2]
  antihyperalgesic effect in model of monoarthritis (overall): induce antihyperalgesic effects
[3]
  solubility issues: Solubility issues were observed

## CN1CC[C@]23c4c5ccc(O)c4O[C@H]2[C@@H](O)C=C[C@H]3[C@H]1C5 [morphine]
[4]
  effect on ipsilateral hindpaw volume: did not alter ipsilateral hindpaw volumes; also recorded: unaffected
[5]
  adverse behavioural effects: did not produce adverse behavioural effects
[2]; morphine 5 mg/kg i.p., compared to pre-induction values
  antinociceptive effect (vocalization threshold): significant increase in the vocalization threshold
[6]; 0.5 mg/kg s.c. single bolus
  duration of action (anti-hyperalgesic response): 2 to 3 h
[6]; 0.5 mg/kg s.c. single bolus, post-dosing
  time of peak anti-hyperalgesic response: 0.5 h
[6]; 0.5 mg/kg s.c., 0.5 h post-dosing
  reversal of FCA-induced mechanical hyperalgesia: fully reversed FCA-induced mechanical hyperalgesia
[6]; 0.5 mg/kg s.c., 0.5 h post-dosing, pre-dosing 63.7 (±2.5) g
  mean (±SEM) PPT at the time of peak effect, ipsilateral hindpaw: 115.0 (±10.6) g
[7]
  antinociceptive effect in the contralateral hindpaw: small antinociceptive effect
